Measured values taken from US8518931B2, “Compounds and compositions as kinase inhibitors” (IRM LLC, priority 2008, dated 2013).

Biological target: T1, NPM-ALK (Homo sapiens, UniProt Q9UM73)
T1 construct: nucleophosmin (NPM, NPM1; human P06748) fusion partner; expressed in transfected cells; host or cells: murine BaF3 cells (DSMZ), transfected with pCIneo (Promega) coding for NPM-ALK and selected with G418; the other entry of the earlier key: Npm1 (Q61937, Nucleophosmin)
Experiment: NPM-ALK BaF3 assay (growth inhibition of BaF3-NPM-ALK cells)
Assay type: cell-based
Details: human NPM-ALK overexpressing murine BaF3 cells
Text: The expression of NPM-ALK may be achieved by transfecting the BaF3 cell line with an expression vector pClneo™ (Promega Corp., Madison Wis., USA) coding for NPM-ALK and subsequent selection of G418 resistant cells. Non-transfected BaF3 cells depend on IL-3 for cell survival. In contrast, NPM-ALK expressing BaF3 cells (named BaF3-NPM-ALK hereinafter) can proliferate in the absence of IL-3 because they obtain proliferative signal through NPM-ALK kinase. Putative inhibitors of the NPM-ALK kinase therefore abolish the growth signal and may result in antiproliferative activity. The antiproliferative activity of putative inhibitors of the NPM-ALK kinase can however be overcome by addition of IL-3, which provides growth signals through an NPM-ALK independent mechanism. An analogous cell system using FLT3 kinase has also been described (see, E Weisberg et al. Cancer Cell; 1, 433-443 (2002)).
The inhibitory activity of the compounds of the invention may be determined as follows. In general, BaF3-NPM-ALK cells (15,000/microtitre plate well) are transferred to 96-well microtitre plates. Test compounds dissolved in dimethyl sulfoxide (DMSO) are added in a series of concentrations (dilution series) in such a manner that the final concentration of DMSO is not greater than 1% (v/v). After the addition, the plates are incubated for two days during which the control cultures without test compound are able to undergo two cell-division cycles. The growth of the BaF3-NPM-ALK cells is measured by means of YOPRO™ staining [T Idziorek et al. J. Immunol. Methods; 185: 249-258 (1995)]: 25 μl of lysis buffer comprising 20 mM sodium citrate, pH 4.0, 26.8 mM sodium chloride, 0.4% NP40, 20 mM EDTA and […] to each well. Cell lysis is completed within 60 min at room temperature and total amount of YOPRO™ bound to DNA is determined by measurement using the Cytofluor II 96-well reader (PerSeptive Biosystems) with the following settings: Excitation (nm) 485/20 and Emission (nm) 530/25.
IC50 values may be determined by a computer-aided system using the formula: IC50=[(ABStest−ABSstart)/(ABScontrol−ABSstart)]×100·(ABS=absorption)
In general, compounds of the invention have IC50 values from 1 nM to 10 μM. In some examples, compounds of the invention have IC50 values from 0.01 μM to 5 μM. In other examples, compounds of the invention have IC50 values from 0.01 μM to 1 μM, or more particularly from 1 nM to 1 μM.
Table 1 describes representative compounds of the invention, prepared following the procedures described above. IC50 values are as measured in an NPM-ALK BaF3 assay.

T1 sequence (Q9UM73 with tags, fused parts or gaps): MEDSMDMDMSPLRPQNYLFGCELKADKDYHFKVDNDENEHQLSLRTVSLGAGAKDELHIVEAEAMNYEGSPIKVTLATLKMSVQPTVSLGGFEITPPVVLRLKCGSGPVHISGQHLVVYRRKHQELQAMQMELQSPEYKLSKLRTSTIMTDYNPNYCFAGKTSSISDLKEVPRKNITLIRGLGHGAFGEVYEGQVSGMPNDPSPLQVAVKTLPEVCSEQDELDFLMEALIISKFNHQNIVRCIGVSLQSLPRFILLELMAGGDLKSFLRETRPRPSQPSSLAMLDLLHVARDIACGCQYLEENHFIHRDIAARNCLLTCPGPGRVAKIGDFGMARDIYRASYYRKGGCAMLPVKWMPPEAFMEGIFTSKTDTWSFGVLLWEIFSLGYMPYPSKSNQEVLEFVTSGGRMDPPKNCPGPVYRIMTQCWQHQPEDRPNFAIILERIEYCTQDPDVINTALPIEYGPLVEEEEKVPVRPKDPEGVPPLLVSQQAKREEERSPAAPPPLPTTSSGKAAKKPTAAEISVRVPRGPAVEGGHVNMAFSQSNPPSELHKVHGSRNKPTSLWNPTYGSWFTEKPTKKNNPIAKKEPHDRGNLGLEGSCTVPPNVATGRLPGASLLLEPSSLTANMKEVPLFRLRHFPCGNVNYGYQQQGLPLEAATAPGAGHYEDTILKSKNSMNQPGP

## COc1cc(C2CCN(C(=O)CN3CCOCC3)CC2)c(C)cc1Nc1nc(Nc2ccccc2S(=O)(=O)C(C)C)n2nccc2n1 [Ex 88]
  IC50: 47 nM

## COc1cc(C2CCN(C(=O)[C@@H](C)N3CCC3)CC2)c(C)cc1Nc1nc(Nc2ccccc2S(=O)(=O)C(C)C)n2nccc2n1 [Ex 81]
  IC50: 26 nM

## COc1cc(C2CCN(C(=O)[C@H](C)N3CCC3)CC2)c(C)cc1Nc1nc(Nc2ccccc2S(=O)(=O)C(C)C)n2nccc2n1 [Ex 61]
  IC50: 34 nM

## COc1cc(C2CCN(C(=O)[C@H](C)N)CC2)c(C)cc1Nc1nc(Nc2ccccc2S(=O)(=O)C(C)C)n2nccc2n1 [Ex 67]
  IC50: 40 nM

## COc1cc(C2CCNCC2)c(C)cc1Nc1nc(Nc2ccccc2S(=O)(=O)C(C)C)n2nccc2n1 [Ex 4]
  IC50: 38 nM

## COc1cc(C2CCN(CCC(=O)N3CCC3)CC2)c(C)cc1Nc1nc(Nc2ccccc2S(=O)(=O)C(C)C)n2nccc2n1 [Ex 89]
  IC50: 15 nM

## COc1cc(C2CCN(C(=O)C3COCCN3)CC2)c(C)cc1Nc1nc(Nc2ccccc2S(=O)(=O)C(C)C)n2nccc2n1 (stereo not drawn) [Ex 32]
  IC50: 29 nM

## CC(C)S(=O)(=O)c1ccccc1Nc1nc(Nc2ccc3c(c2)CCNC3)nc2ccnn12 [Ex 41]
  IC50: 85 nM

## COc1cc(C2CCN(CCC(N)=O)CC2)c(C)cc1Nc1nc(Nc2ccccc2S(=O)(=O)C(C)C)n2nccc2n1 [Ex 13]
  IC50: 15 nM

## COc1cc(C2CCN(C(=O)[C@H](N)CO)CC2)c(C)cc1Nc1nc(Nc2ccccc2S(=O)(=O)C(C)C)n2nccc2n1 [Ex 86]
  IC50: 34 nM

## COc1cc(C2CCN(C(=O)C3CCCCN3)CC2)c(C)cc1Nc1nc(Nc2ccccc2S(=O)(=O)C(C)C)n2nccc2n1 (stereo not drawn) [Ex 29]
  IC50: 54 nM

## COc1cc(C2CCN(C(=O)[C@@H](C)NCCO)CC2)c(C)cc1Nc1nc(Nc2ccccc2S(=O)(=O)C(C)C)n2nccc2n1 [Ex 97]
  IC50: 32 nM

## CCN(CC)CCC(=O)N1CCC(c2cc(OC)c(Nc3nc(Nc4ccccc4S(=O)(=O)C(C)C)n4nccc4n3)cc2C)CC1 [Ex 99]
  IC50: 35 nM

## COc1cc(C2CCN(C(=O)CN3CCCC3)CC2)c(C)cc1Nc1nc(Nc2ccccc2S(=O)(=O)C(C)C)n2nccc2n1 [Ex 15]
  IC50: 31 nM

## CCCNCC(=O)N1CCC(c2cc(OC)c(Nc3nc(Nc4ccccc4S(=O)(=O)C(C)C)n4nccc4n3)cc2C)CC1 [Ex 103]
  IC50: 16 nM

## COc1cc(C2CCN(C(=O)[C@H](C)NCCO)CC2)c(C)cc1Nc1nc(Nc2ccccc2S(=O)(=O)C(C)C)n2nccc2n1 [Ex 65]
  IC50: 37 nM

## CNC1(C(=O)N2CCC(c3cc(OC)c(Nc4nc(Nc5ccccc5S(=O)(=O)C(C)C)n5nccc5n4)cc3C)CC2)CC1 [Ex 26]
  IC50: 25 nM

## COc1cc(C2CCN(C(=O)[C@H](C)N3CC[C@@H](O)C3)CC2)c(C)cc1Nc1nc(Nc2ccccc2S(=O)(=O)C(C)C)n2nccc2n1 [Ex 79]
  IC50: 38 nM

## COc1cc(C2CCOCC2)c(C)cc1Nc1nc(Nc2ccccc2S(=O)(=O)C(C)C)n2nccc2n1 [Ex 10]
  IC50: 138 nM

## COc1cc(C2CCN(C(=O)CCCN3CCOCC3)CC2)c(C)cc1Nc1nc(Nc2ccccc2S(=O)(=O)C(C)C)n2nccc2n1 [Ex 101]
  IC50: 31 nM

## COc1cc(C2CCN(CC(N)=O)CC2)c(C)cc1Nc1nc(Nc2ccccc2S(=O)(=O)C(C)C)n2nccc2n1 [Ex 23]
  IC50: 16 nM

## COc1cc(C2CCN(C(=O)[C@@H]3C[C@H](F)CN3)CC2)c(C)cc1Nc1nc(Nc2ccccc2S(=O)(=O)C(C)C)n2nccc2n1 [Ex 54]
  IC50: 42 nM

## Cc1cc(CN2CCC(c3cc(OC(C)C)c(Nc4nc(Nc5ccccc5S(=O)(=O)C(C)C)n5nccc5n4)cc3C)CC2)[nH]n1 [Ex 5]
  IC50: 140 nM

## COc1cc(C2CCN(C(=O)[C@H](C)N(C)CCO)CC2)c(C)cc1Nc1nc(Nc2ccccc2S(=O)(=O)C(C)C)n2nccc2n1 [Ex 95]
  IC50: 22 nM

## Cc1cc(C2CCN(C(=O)CCN(C)C)CC2)c(C)cc1Nc1nc(Nc2ccccc2S(=O)(=O)C(C)C)n2nccc2n1 [Ex 48]
  IC50: 59 nM

## Cc1cc(C2CCN(CCS(C)(=O)=O)CC2)c(C)cc1Nc1nc(Nc2ccccc2S(=O)(=O)C(C)C)n2nccc2n1 [Ex 45]
  IC50: 62 nM

## COc1cc(C2CCN(C(=O)[C@@H](C)N(C)CCO)CC2)c(C)cc1Nc1nc(Nc2ccccc2S(=O)(=O)C(C)C)n2nccc2n1 [Ex 98]
  IC50: 13 nM
